{"source": "patent US20080113938A1", "about": "“ACCELERATOR FOR MINERAL ABSORPTION AND USE THEREOF” (KABUSHIKI KAISHA HAYASHIBARA SEIBUTSU KAGAKU KENKYUJO, priority 2003, published 2008)", "format_in_all_cases": "cell-based, Wister rats", "key": {"[1]": {"system": "reversed canal sac of intestinum ileum", "assay": "Calcium absorption in reversed canal sac, intestinum ileum", "procedure": "(§1) Experiment 1 confirmed that cyclic tetrasaccharide promotes mineral absorption in alimentary canal of rat concretely in intestinum ileum or its upper alimentary canal. The following experiment was carried out in order to determine a part of alimentary canal, cyclic tetrasaccharide acts on to promote mineral absorption. Twenty heads of Wister rats (nine week aged male, commercialized by Charlesriver Corporation, Kanagawa, Japan) were bred for three days with a usual solid feed for rats. Under the anesthetization with ether, alimentary canal was taken out from each rat which had been bled from a jugular vein and treated by abdominal operation. Each alimentary canal was divided into jejunum, intestinum ileum and colon/rectum and washed with physiological saline to remove the content. The resulting jejunum specimen, intestinum ileum specimen or colon/rectum specimen was cut off to prepare each midsection sized with about 10 cm in length. The resulting midsection of each specimen was reversed using a glass rod and immersed in a physiological saline babbled with gas consisting of 95% oxygen and 5% carbon dioxide. The resultant was cut into pieces sized with 5 cm in length and each piece was tied with a suture thread at both ends to prepare a reversed canal sac, and injected with about 0.5 ml of an internal sac solution containing 30 mM Tris-HCl buffer (pH7.4), 125 mM sodium chloride, 4 mM potassium chloride, 10 mM glucose and 1.25 mM calcium chloride (dihydrate) with a syringe and weighed. The resulting sac was immersed in an external sac solution (being bubbled with the gas consisting of 95% oxygen and 5% carbon dioxide) containing 50 mM, 100 mM or 200 mM of the same cyclic tetrasaccharide to Experiment 1 in the above solution containing 30 mM Tris-HCl buffer (pH7.4), 125 mM sodium chloride, 4 mM potassium chloride, 10 mM glucose and 1.25 mM calcium chloride (dihydrate). At 15 or 30 minutes after the immersion, the reversed canal sac was taken out from the solution and washed with distilled water. The internal sac solution was collected from the resulting sac and admixed with distilled water to give a final volume of 25 ml. The resulting solution was subjected to a calorimetric measurement of calcium content using “CALCIUM TEST C WAKO™” (commercialized by Wako Pure Chemicals Corporation, Osaka, Japan). As a negative control, an external sac solution without saccharides. As a positive control, an external sac solution containing 200 mM maltitol, reported to have the effect on promoting mineral absorption though intestinal canal, instead of cyclic tetrasaccharide were prepared and carried out in the same manner. Speed of calcium absorption (nmol/min·cm^2) and its relative values defining the value of negative control as 100 were calculated."}, "[2]": {"system": "reversed canal sac of colon/rectum", "assay": "Calcium absorption in reversed canal sac, colon/rectum", "procedure": "as §1"}, "[3]": {"system": "reversed canal sac of jejunum", "assay": "Calcium absorption in reversed canal sac, jejunum", "procedure": "as §1"}, "[4]": {"settings": "200 mM saccharide in external sac solution"}}, "note": "Marks after values point to notes of the source that are not given here.", "data": [{"smiles": "OC[C@@H](O)[C@@H](O[C@H]1O[C@H](CO)[C@@H](O)[C@H](O)[C@H]1O)[C@H](O)[C@@H](O)CO", "note": "[Maltitol, maltitol, reference compound]", "values": [{"measurement": "Absorption speed of calcium in alimentary canal sac, Intestinum ileum", "setting": "[1]; [4]", "result": "40.5 * nmol/min · cm^2"}, {"measurement": "Relative value of calcium absorption speed (control = 100), Intestinum ileum", "setting": "[1]; [4]", "result": "(150)"}, {"measurement": "promotion of calcium absorption in intestinum ileum", "setting": "[1]; reversed sac", "result": "strongly promoted"}, {"measurement": "Absorption speed of calcium in alimentary canal sac, Colon/Rectum", "setting": "[2]; [4]", "result": "22.3 * nmol/min · cm^2"}, {"measurement": "Relative value of calcium absorption speed (control = 100), Colon/Rectum", "setting": "[2]; [4]", "result": "(168)"}, {"measurement": "promotion of calcium absorption in colon/rectum", "setting": "[2]; reversed sac", "result": "strongly promoted"}, {"measurement": "Absorption speed of calcium in alimentary canal sac, Jejunum", "setting": "[3]; [4]", "result": "27.9 * nmol/min · cm^2"}, {"measurement": "Relative value of calcium absorption speed (control = 100), Jejunum", "setting": "[3]; [4]", "result": "(131)"}, {"measurement": "promotion of calcium absorption in jejunum", "setting": "[3]; reversed sac", "result": "strongly promoted"}]}]}
